Reference: patent US10975056B2 (GlaxoSmithKline Intellectual Property Development Limited, priority 2016, dated 2021)
Counter-ions that a name gives are not always drawn. Like-named read-outs stand apart in the source and are kept apart here.

How the values were obtained:
DNMT3B = DNMT3B (Homo sapiens (Human), UniProt Q9UBC3); assay: DNMT3B breaklight assay; type: biochemical
human DNMT3a/3l = human DNMT3a/3l (Homo sapiens (Human), UniProt Q9Y6K1); assay: DNMT3a/3l breaklight assay; type: biochemical
Experimental: DNMT3a/3l Breakliqht Assay
DNMT3a/3l breaklight in vitro assays were conducted in a total volume of 50 μl in a standard 384 well format, using black non-binding surface microplates (Corning #3575). […] Negative control wells used 5 μl of DNMT3a/3l and 5 μl of oligonucleotide but also included 200 μM SAH. All reagents were made up in 1× assay buffer (20 mM Tris pH 7.4, 100 mM NaCl, 1.5 mM EDTA, 0.1 mM MgCl2, 1 mM CHAPS and 1 mM DTT). The reaction was incubated at 37° C. for 90 min and then stopped with the addition of 40 μl detection reagent. Detection reagent, made up in 1× Gla assay buffer (20 mM Tris pH 8.0, 80 mM NaCl, 0.75 mM MgCl2, 0.01% Triton X100 and 1 mM DTT) has a final concentration of 200 μM SAH (Sigma #A9384) and 0.0008 units/μl Gla1 restriction endonuclease (Sibenzyme #E494). Following addition of the detection reagent the plate was incubated in the dark at room temperature for 5 hr. Fluorescence intensity was then measured on the PHERAstar FS (BMG Labtech) at Ex 485 nm and Em 520 nm, with a gain of 400 and an integration time of 100 ms.

human full length DNMT1 = human full length DNMT1 (Homo sapiens (Human), UniProt P26358); assay: DNMT1 breaklight assay; type: biochemical; settings: repeated experimental runs, read-out: average IC50 against DNMT1
Experimental: DNMT1 breaklight in vitro assays were conducted in a total volume of 50 μl in a standard 384 well format, using black non-binding surface microplates (Corning 3575). Five μl of human full length DNMT1 (produced internally), used at a final concentration of 40 nM, was added to 5 μl of substrate mixture containing final concentrations of 125 nM hemi methylated oligonucleotide (synthesized at ATD Bio; 5′-FAM-[…]5[…]5G5TAGAT-3′ where 5=methyl deoxycitidine) and 2 μM ultrapure SAM (Cisbio #62SAHZLD). Negative control wells used 5 μl of DNMT1 and 5 μl of oligonucleotide but 0 μM SAM. All reagents were made up in 1× assay buffer (20 mM Tris pH 6.8, 25 mM NaCl, 0.5 mM MgCl2, 0.01% Triton X100 and 1 mM DTT). The reaction was incubated at 26° C. for 45 min and then stopped with the addition of 40 μl detection reagent. Detection reagent, made up in 1× Gla assay buffer (20 mM Tris pH 8.0, 80 mM NaCl, 0.75 mM MgCl2, 0.01% Triton X100 and 1 mM DTT) has a final concentration of 100 μM SAH (Sigma #A9384) and 0.0008 units/μl Gla1 restriction endonuclease (Sibenzyme #E494). Following addition of the detection reagent the plate was incubated in the dark at room temperature for 5 hr. Fluorescence intensity was then measured on the PHERAstar FS (BMG Labtech) at Ex 485 nm and Em 520 nm, with a gain of 400 and an integration time of 100 ms.

MV-4-11 AML cells = assay: MV-4-11 cell proliferation assay (CellTiter-Glo, 6 days); type: cell-based; settings: Homo sapiens, MV4-11, 144 h; 6 days treatment; binning as pXC50; read-out: MV4-11 Anti-proliferative activity (EC50 category)
Experimental: MV-4-11 Anti-Proliferative Activity (pEC50 Category)
Cell proliferation assay. Optimal cell seeding density was determined empirically for MV-4-11 AML cells by examining the growth of a wide range of seeding densities in a 384-well format to identify conditions that permitted maximal and continued proliferation for 6 days. MV-4-11 cells were plated in duplicate plates 24 hours before treatment with a 20-point two-fold dilution series of compound or 0.15% DMSO. Plates were incubated for 6 days at 37° C. in 5% CO2. Cells were then lysed with CellTiter-Glo (CTG) (Promega) and chemiluminescent signal was detected with an appropriate microplate reader. In addition, an untreated plate of cells was harvested at the time of compound addition (T0) to quantify the initial cell density. CTG values obtained after 6 days of treatment were expressed as a percent of the T0 value and plotted against compound concentration. Data were fit with a four parameter equation to generate a concentration response curve from which growth IC50 values were calculated.

[1] = read-out: DNMT3B Breaklight IC50
[2] = repeated experimental runs, read-out: average IC50, DNMT3B breaklight assay
[3] = read-out: DNMT3A Breaklight IC50
[4] = repeated experimental runs, read-out: average IC50, DNMT3A breaklight assay

Sequence of human full length DNMT1 (P26358 whole entry): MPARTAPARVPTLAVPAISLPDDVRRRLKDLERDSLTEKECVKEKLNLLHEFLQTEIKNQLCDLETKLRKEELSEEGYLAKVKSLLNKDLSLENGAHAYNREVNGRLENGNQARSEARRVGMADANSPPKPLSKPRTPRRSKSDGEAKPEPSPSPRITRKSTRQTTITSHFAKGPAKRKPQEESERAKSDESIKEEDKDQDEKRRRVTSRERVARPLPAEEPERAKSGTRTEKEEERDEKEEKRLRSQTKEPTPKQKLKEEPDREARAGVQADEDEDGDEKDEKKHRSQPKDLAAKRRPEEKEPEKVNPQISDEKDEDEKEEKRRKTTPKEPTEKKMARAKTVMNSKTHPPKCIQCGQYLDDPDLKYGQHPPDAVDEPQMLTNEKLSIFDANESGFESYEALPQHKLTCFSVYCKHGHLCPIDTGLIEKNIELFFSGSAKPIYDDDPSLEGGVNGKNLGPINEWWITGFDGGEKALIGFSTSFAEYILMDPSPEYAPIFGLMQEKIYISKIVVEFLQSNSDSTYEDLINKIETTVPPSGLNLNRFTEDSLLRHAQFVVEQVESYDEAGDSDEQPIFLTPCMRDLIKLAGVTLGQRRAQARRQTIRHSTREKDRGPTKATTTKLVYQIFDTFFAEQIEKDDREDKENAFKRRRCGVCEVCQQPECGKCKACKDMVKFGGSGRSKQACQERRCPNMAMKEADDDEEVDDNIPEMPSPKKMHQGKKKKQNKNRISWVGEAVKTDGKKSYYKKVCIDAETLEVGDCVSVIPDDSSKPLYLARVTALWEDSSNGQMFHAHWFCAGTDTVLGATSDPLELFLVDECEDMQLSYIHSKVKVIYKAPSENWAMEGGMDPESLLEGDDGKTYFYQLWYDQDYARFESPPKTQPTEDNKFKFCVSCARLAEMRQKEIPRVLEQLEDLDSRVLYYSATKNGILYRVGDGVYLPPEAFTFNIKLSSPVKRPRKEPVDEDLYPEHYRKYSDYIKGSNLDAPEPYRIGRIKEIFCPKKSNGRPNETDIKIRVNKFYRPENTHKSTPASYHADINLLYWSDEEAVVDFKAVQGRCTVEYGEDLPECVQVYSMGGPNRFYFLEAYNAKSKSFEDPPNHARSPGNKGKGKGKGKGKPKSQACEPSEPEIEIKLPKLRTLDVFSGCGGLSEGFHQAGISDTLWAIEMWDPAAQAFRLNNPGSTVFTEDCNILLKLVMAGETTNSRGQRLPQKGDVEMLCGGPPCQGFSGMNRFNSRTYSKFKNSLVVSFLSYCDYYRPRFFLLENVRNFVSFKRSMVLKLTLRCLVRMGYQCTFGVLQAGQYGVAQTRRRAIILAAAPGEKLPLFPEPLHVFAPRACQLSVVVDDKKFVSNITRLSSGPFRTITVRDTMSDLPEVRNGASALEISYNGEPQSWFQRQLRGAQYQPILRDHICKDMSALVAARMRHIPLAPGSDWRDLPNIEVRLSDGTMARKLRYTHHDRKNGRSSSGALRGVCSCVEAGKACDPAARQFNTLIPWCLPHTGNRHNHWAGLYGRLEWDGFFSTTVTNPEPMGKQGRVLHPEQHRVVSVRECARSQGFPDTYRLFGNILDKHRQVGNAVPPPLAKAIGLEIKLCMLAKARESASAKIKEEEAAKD
Sequence of human DNMT3a/3l (Q9Y6K1 whole entry, looked up): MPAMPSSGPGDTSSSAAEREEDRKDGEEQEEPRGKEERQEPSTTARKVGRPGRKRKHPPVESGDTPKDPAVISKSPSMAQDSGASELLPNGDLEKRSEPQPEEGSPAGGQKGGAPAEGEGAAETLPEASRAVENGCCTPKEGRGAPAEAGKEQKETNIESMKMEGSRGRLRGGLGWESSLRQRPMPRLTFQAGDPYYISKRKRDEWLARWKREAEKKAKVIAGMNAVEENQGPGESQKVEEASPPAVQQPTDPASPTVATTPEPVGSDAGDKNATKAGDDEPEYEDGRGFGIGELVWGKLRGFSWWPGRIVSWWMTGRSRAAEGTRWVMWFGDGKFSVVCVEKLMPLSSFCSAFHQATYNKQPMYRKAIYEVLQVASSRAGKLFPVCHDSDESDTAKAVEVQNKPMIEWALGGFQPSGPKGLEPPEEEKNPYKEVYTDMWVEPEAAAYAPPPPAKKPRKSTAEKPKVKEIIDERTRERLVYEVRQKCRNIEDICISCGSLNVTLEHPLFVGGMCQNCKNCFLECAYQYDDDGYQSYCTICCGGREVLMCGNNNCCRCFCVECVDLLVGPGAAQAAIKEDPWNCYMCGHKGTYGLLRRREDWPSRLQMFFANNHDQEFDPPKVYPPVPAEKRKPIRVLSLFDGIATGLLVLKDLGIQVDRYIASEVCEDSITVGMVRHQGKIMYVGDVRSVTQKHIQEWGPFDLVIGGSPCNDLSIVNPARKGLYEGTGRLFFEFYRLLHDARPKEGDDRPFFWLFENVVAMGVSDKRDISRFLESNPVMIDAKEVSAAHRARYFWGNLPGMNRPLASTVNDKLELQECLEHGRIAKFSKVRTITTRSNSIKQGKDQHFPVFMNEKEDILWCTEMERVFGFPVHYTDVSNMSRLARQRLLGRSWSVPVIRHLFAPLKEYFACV
Sequence of human DNMT3a/3l (Q9UJW3 whole entry partner, looked up): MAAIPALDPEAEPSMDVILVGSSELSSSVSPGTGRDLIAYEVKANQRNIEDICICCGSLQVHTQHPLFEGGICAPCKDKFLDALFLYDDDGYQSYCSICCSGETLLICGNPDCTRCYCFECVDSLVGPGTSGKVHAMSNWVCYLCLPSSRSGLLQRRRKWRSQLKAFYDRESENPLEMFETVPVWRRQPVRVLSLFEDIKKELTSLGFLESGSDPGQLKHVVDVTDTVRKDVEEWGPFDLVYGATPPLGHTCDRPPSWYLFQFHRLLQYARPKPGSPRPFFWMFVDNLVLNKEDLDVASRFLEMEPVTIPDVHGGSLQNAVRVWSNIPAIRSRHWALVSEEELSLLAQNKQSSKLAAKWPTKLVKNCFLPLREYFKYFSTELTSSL

IC50 (DNMT3B; [1])	IC50 (DNMT3B; [2])	IC50 (human DNMT3a/3l; [3])	IC50 (human DNMT3a/3l; [4])	IC50 (human full length DNMT1)	EC50 (MV-4-11 AML cells)	Structure (SMILES)
> 500 µM	> 500 µM	> 500 µM	> 500 µM	> 750 nM		N#Cc1c(SC(C(N)=O)c2ccncc2)nc(N2CCOCC2)c(C#N)c1C1CC1 (stereo not drawn) [Example 9, 2-((3,5-dicyano-4-cyclopropyl-6-morpholinopyridin-2-yl)thio)-2-(pyridin-4-yl)acetamide]
> 500 µM	> 500 µM	> 500 µM	> 500 µM	> 750 nM	1000 to 31600 nM	CCc1c(C#N)c(SC(C(N)=O)c2ccccc2)nc(N2CCNC(=O)CC2)c1C#N (stereo not drawn) [Example 8, 2-{[3,5-dicyano-4-ethyl-6-(5-oxo-1,4-diazepan-1-yl)pyridin-2-yl]sulfanyl}-2-phenylacetamide]
> 500 µM	> 500 µM	> 500 µM	> 500 µM	> 750 nM		CCc1c(C#N)c(N[C@@H](C(N)=O)c2ccccc2)nc(N2CCCNCC2)c1C#N [Example 41, (R)-2-((3,5-dicyano-6-(1,4-diazepan-1-yl)-4-ethylpyridin-2-yl)amino)-2-phenylacetamide]
> 500 µM	> 500 µM	> 500 µM	> 500 µM	≤ 500 nM	1000 to 31600 nM	CCc1c(C#N)c(SC(C(N)=O)c2ccccc2)nc(N2CCCN(C)CC2)c1C#N (stereo not drawn) [Example 56, 2-((3,5-Dicyano-4-ethyl-6-(4-methyl-1,4-diazepan-1-yl)pyridin-2-yl)thio)-2-phenylacetamide]
272 µM		> 500 µM			1000 to 31600 nM	CCc1c(C#N)c(SC(C(N)=O)c2ccccc2)nc(N2CCNCC2)c1C#N (stereo not drawn) [Example 55, 2-((3,5-Dicyano-4-ethyl-6-(piperazin-1-yl)pyridin-2-yl)thio)-2-phenylacetamide]
> 500 µM		> 500 µM		890 nM		CCc1c(C#N)c(SC(C(N)=O)c2ccccc2)nc(N2CCC(O)CC2)c1C#N (stereo not drawn) [Example 48, 2-((3,5-Dicyano-4-ethyl-6-(4-hydroxypiperidin-1-yl)pyridin-2-yl)thio)-2-phenylacetamide]
> 500 µM	> 500 µM	> 500 µM	> 500 µM	> 750 nM		CCc1c(C#N)c(SC(C(N)=O)c2ccccc2)nc(N2CCN(CC)CC2)c1C#N (stereo not drawn) [Example 35, 2-((3,5-dicyano-4-ethyl-6-(4-ethylpiperazin-1-yl)pyridin-2-yl)thio)-2-phenylacetamide]
> 500 µM		> 500 µM			316 to 1000 nM	CCc1c(C#N)c(SC(C(N)=O)c2ccccc2)nc(N2CCOCC2)c1C#N (stereo not drawn) [Example 57, 2-((3,5-Dicyano-4-ethyl-6-morpholinopyridin-2-yl)thio)-2-phenylacetamide]
				≤ 500 nM	316 to 1000 nM	CN1CCN(C2CCN(c3nc(SC(C(N)=O)c4ccccc4)c(C#N)c(C4CC4)c3C#N)CC2)CC1 (stereo not drawn) [Example 40, 2-((3,5-Dicyano-4-cyclopropyl-6-(4-(4-methylpiperazin-1-yl)piperidin-1-yl)pyridin-2-yl)thio)-2-phenylacetamide]
> 500 µM		> 500 µM			1000 to 31600 nM	CC(Sc1nc(N2CCCNCC2)c(C#N)c(C2CC2)c1C#N)C(N)=O (stereo not drawn) [Example 46, 2-((3,5-dicyano-4-cyclopropyl-6-(1,4-diazepan-1-yl)pyridin-2-yl)thio)propanamide]
				> 750 nM	1000 to 31600 nM	N#Cc1c(SC(C(N)=O)c2ccccc2)nc(N2CCOC(CO)C2)c(C#N)c1C1CC1 (stereo not drawn) [Example 63, 2-((3,5-Dicyano-4-cyclopropyl-6-(2-(hydroxymethyl)morpholino)pyridin-2-yl)thio)-2-phenylacetamide]

Structure (SMILES)	IC50 (DNMT3B; [1])	IC50 (DNMT3B; [2])	IC50 (human DNMT3a/3l; [3])	IC50 (human DNMT3a/3l; [4])	IC50 (human full length DNMT1)	EC50 (MV-4-11 AML cells)
CCc1c(C#N)c(SC(C(N)=O)c2ccccc2)nc(N2CCC23CCNCC3)c1C#N (stereo not drawn) [Example 38, 2-((3,5-Dicyano-4-ethyl-6-(1,7-diazaspiro[3.5]nonan-1-yl)pyridin-2-yl)thio)-2-phenylacetamide trifluoroacetate]					> 750 nM	1000 to 31600 nM
CN1CCN(CC2CCN(c3nc(SC(C(N)=O)c4ccccc4)c(C#N)c(C4CC4)c3C#N)CC2)CC1 (stereo not drawn) [Example 125, 2-((3,5-Dicyano-4-cyclopropyl-6-(4-((4-methylpiperazin-1-yl)methyl)piperidin-1-yl)pyridin-2-yl)thio-2-phenylacetamide trifluoroacetate]	75 µM		322 µM			316 to 1000 nM
